Test results taken from patent US11427548B2 (Arvinas Operations, Inc., priority 2015, dated 2022).
Read-outs that look alike come from different tables or passages of the source.

Molecular target: T1, Androgen Receptor (Homo sapiens, UniProt P10275)
T1 construct: endogenous in cells; host or cells: VCaP cells
T1 sequence (P10275 1-920): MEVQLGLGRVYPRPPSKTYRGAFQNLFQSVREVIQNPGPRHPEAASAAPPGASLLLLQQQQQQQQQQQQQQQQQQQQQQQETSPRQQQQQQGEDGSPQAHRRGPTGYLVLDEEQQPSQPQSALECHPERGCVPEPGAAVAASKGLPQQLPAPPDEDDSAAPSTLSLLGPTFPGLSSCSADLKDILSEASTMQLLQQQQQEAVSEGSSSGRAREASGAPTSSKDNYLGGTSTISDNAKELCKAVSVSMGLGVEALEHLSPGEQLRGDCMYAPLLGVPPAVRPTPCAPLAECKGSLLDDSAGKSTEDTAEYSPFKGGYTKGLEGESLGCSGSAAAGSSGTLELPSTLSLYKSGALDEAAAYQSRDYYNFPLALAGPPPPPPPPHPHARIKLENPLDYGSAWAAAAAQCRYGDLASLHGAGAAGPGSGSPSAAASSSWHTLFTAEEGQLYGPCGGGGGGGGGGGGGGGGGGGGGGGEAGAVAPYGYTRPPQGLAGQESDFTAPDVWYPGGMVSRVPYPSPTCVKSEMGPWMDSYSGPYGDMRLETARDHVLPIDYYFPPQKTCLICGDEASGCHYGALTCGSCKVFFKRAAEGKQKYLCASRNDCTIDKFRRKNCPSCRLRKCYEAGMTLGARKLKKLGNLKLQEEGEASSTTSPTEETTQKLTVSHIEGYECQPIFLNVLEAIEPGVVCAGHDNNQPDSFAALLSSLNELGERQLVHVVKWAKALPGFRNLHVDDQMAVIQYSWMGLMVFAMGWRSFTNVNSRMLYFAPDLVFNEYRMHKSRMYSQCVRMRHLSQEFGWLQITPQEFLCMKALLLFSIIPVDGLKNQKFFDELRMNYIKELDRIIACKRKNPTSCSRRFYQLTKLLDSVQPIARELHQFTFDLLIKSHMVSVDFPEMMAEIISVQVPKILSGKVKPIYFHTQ
Assay: Androgen Receptor ELISA assay (PathScan AR ELISA) in VCaP cells: AR degradation, Dmax and DC50
Assay type: cell-based
In short: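 VCaP cells in phenol red-free RPMI with 5% charcoal-stripped FBS were grown at least 3 days, then given compound as 7 half-log doses in 0.1% DMSO with 0.1 nM R1881 for 24 h. Lysates went into a sandwich AR ELISA with TMB read at 450 nm.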

[1] = read-out: VCaP DC50; concentration that caused 50% Androgen Receptor degradation, VCaP cells (Table 32)
[2] = VCaP, highest percentage of Androgen Receptor degradation observed, VCaP cells (Table 32); read-out: VCaP Dmax (%)
[3] = concentration that caused 50% Androgen Receptor degradation, VCaP cells (Table 32); read-out: VCaP DC50

Row | Dmax [2] [%] | DC50 [3] [nM] | SMILES | Dmax (VCaP, read-out: VCaP Dmax (%)) [%] | DC50 [1] [nM]
1 | > 71 | < 50 | Cc1ncsc1-c1ccc(CNC(=O)[C@@H]2C[C@@H](O)CN2C(=O)[C@@H](NC(=O)COCCCCCOc2ccc(C(=O)N[C@H]3C(C)(C)[C@H](Oc4ccc(C#N)c(Cl)c4)C3(C)C)cc2)C(C)(C)C)cc1 [Example 151, (2S,4R)-1-[(2S)-3,3-dimethyl-2-(2-{[5-(4-{[trans-3-(3-chloro-4-cyanophenoxy)-2,2,4,4-tetramethylcyclobutyl]carbamoyl}phen-oxy)pentyl]oxy}acetamido)butanoyl]-4-hydroxy-N-{[4-(4-methyl-1,3-thiazol-5-yl)phenyl]methyl}pyrrolidine-2-carboxamide] | – | –
2 | > 71 | < 50 | Cc1ncoc1-c1ccc(CNC(=O)[C@@H]2C[C@@H](O)CN2C(=O)[C@@H](NC(=O)COCCCCCOc2ccc(C(=O)NC3C(C)(C)C(Oc4ccc(C#N)c(Cl)c4)C3(C)C)cc2)C(C)(C)C)cc1 (stereo partly drawn) [Example 152, (2S,4R)-1-[(2S)-3,3-dimethyl-2-(2-{[5-(4-{[trans-3-(3-chloro-4-cyanophenoxy)-2,2,4,4-tetramethylcyclobutyl]carbamoyl}phen-oxy)pentyl]oxy}acetamido)butanoyl]-4-hydroxy-N-{[4-(4-methyl-1,3-oxazol-5-yl)phenyl]methyl}pyrrolidine-2-carboxamide] | – | –
3 | > 71 | < 50 | CC(C)(C)[C@H](NC(=O)COCCCCCOc1ccc(C(=O)N[C@H]2C(C)(C)[C@H](Oc3ccc(C#N)c(Cl)c3)C2(C)C)cc1)C(=O)N1C[C@H](O)C[C@H]1C(=O)NCc1ccc(-c2cnco2)cc1 [Example 153, (2S,4R)-1-[(2S)-3,3-dimethyl-2-(2-{[5-(4-{[trans-3-(3-chloro-4-cyanophenoxy)-2,2,4,4-tetramethylcyclobutyl]carbamoyl}phen-oxy)pentyl]oxy}acetamido)butanoyl]-4-hydroxy-N-{[4-(1,3-oxazol-5-yl)phenyl]methyl}pyrrolidine-2-carboxamide] | – | –
4 | > 71 | < 50 | Cc1ncoc1-c1ccc(CNC(=O)[C@@H]2C[C@@H](O)CN2C(=O)[C@@H](NC(=O)COCCCCCOc2ccc(C(=O)N[C@H]3C(C)(C)[C@H](Oc4ccc(C#N)c(C(F)(F)F)c4)C3(C)C)cc2)C(C)(C)C)cc1 [Example 154, (2S,4R)-1-[(2S)-3,3-dimethyl-2-(2-{[5-(4-{[trans--3-[4-cyano-3-(trifluoromethyl)phenoxy]-2,2,4,4-tetramethylcyclobutyl]carbamoyl}phen-oxy)pentyl]oxy}acetamido)butanoyl]-4-hydroxy-N-{[4-(4-methyl-1,3-oxazol-5-yl)phenyl]methyl}pyrrolidine-2-carboxamide] | – | –
5 | > 71 | < 50 | Cc1ncsc1-c1ccc(CNC(=O)[C@@H]2C[C@@H](O)CN2C(=O)[C@@H](NC(=O)COCCCCCOc2ccc(C(=O)N[C@H]3C(C)(C)[C@H](Oc4ccc(C#N)c(C(F)(F)F)c4)C3(C)C)cc2)C(C)(C)C)cc1 [Example 155, (2S,4R)-1-[(2S)-3,3-dimethyl-2-(2-{[5-(4-{[trans-3-[4-cyano-3-(trifluoromethyl)phenoxy]-2,2,4,4-tetramethylcyclobutyl]carbamoyl}phen-oxy)pentyl]oxy}acetamido)butanoyl]-4-hydroxy-N-{[4-(4-methyl-1,3-thiazol-5-yl)phenyl]methyl}pyrrolidine-2-carboxamide] | – | –
6 | > 71 | < 50 | Cc1ncsc1-c1ccc(CNC(=O)[C@@H]2C[C@@H](O)CN2C(=O)[C@@H](NC(=O)CO[C@H](C)CCCCOc2ccc(C(=O)N[C@H]3C(C)(C)[C@H](Oc4ccc(C#N)c(Cl)c4)C3(C)C)cc2)C(C)(C)C)cc1 [Example 158, (2S,4R)-1-[(2S)-3,3-dimethyl-2-(2-{[(2R)-6-(4-{[trans-3-(3-chloro-4-cyanophenoxy)-2,2,4,4-tetramethylcyclobutyl]carbamoyl}phen-oxy)hexan-2-yl]oxy}acetamido)butanoyl]-4-hydroxy-N-{[4-(4-methyl-1,3-thiazol-5-yl)phenyl]methyl}pyrrolidine-2-carboxamide] | – | –
7 | > 71 | < 50 | Cc1ncsc1-c1ccc(CNC(=O)[C@@H]2C[C@@H](O)CN2C(=O)[C@@H](NC(=O)CO[C@@H](C)CCCCOc2ccc(C(=O)N[C@H]3C(C)(C)[C@H](Oc4ccc(C#N)c(Cl)c4)C3(C)C)cc2)C(C)(C)C)cc1 [Example 159, (2S,4R)-1-[(2S)-3,3-dimethyl-2-(2-{[(2S)-6-(4-{[trans-3-(3-chloro-4-cyanophenoxy)-2,2,4,4-tetramethylcyclobutyl]carbamoyl}phen-oxy)hexan-2-yl]oxy}acetamido)butanoyl]-4-hydroxy-N-{[4-(4-methyl-1,3-thiazol-5-yl)phenyl]methyl}pyrrolidine-2-carboxamide] | – | –

The next lines start with the compound.

Row | SMILES | Dmax [2] [%] | DC50 [3] [nM] | Dmax (VCaP, read-out: VCaP Dmax (%)) [%] | DC50 [1] [nM]
8 | COc1cc(OCCCCOCC(=O)N[C@H](C(=O)N2C[C@H](O)C[C@H]2C(=O)NCc2ccc(-c3scnc3C)cc2)C(C)(C)C)ccc1-c1ccc(N2C(=S)N(c3ccc(C#N)c(C(F)(F)F)c3)C(=O)C2(C)C)cc1 [Example 140, (2S,4R)-1-[(2S)-2-(2-{4-[4-(4-{3-[4-cyano-3-(trifluoromethyl)phenyl]-5,5-dimethyl-4-oxo-2-sulfanylideneimidazolidin-1-yl}phenyl)-3-methoxyphenoxy]butoxy}acetamido)-3,3-dimethylbutanoyl]-4-hydroxy-N-{[4-(4-methyl-1,3-thiazol-5-yl)phenyl]methyl}pyrrolidine-2-carboxamide] | – | – | > 71 | < 50
9 | Cc1ncsc1-c1ccc(CNC(=O)[C@@H]2C[C@@H](O)CN2C(=O)[C@@H](NC(=O)COCCC[C@@H](C)Oc2ccc(-c3ccc(N4C(=S)N(c5ccc(C#N)c(C(F)(F)F)c5)C(=O)C4(C)C)cc3)cc2)C(C)(C)C)cc1 [Example 141, (2S,4R)-1-[(2S)-2-(2-{[(4S)-4-[4-(4-{3-[4-cyano-3-(trifluoromethyl)phenyl]-5,5-dimethyl-4-oxo-2-sulfanylideneimidazolidin-1-yl}phenyl)phen-oxy]pentyl]oxy}acetamido)-3,3-dimethylbutanoyl]-4-hydroxy-N-{[4-(4-methyl-1,3-thiazol-5-yl)phenyl]methyl}pyrrolidine-2-carboxamide] | – | – | > 71 | < 50
10 | Cc1ncsc1-c1ccc(CNC(=O)[C@@H]2C[C@@H](O)CN2C(=O)[C@@H](NC(=O)COCCC[C@H](C)Oc2ccc(-c3ccc(N4C(=S)N(c5ccc(C#N)c(C(F)(F)F)c5)C(=O)C4(C)C)cc3)cc2)C(C)(C)C)cc1 [Example 142, (2S,4R)-1-[(2S)-2-(2-{[(4R)-4-[4-(4-{3-[4-cyano-3-(trifluoromethyl)phenyl]-5,5-dimethyl-4-oxo-2-sulfanylideneimidazolidin-1-yl}phenyl)phen-oxy]pentyl]oxy}acetamido)-3,3-dimethylbutanoyl]-4-hydroxy-N-{[4-(4-methyl-1,3-thiazol-5-yl)phenyl]methyl}pyrrolidine-2-carboxamide] | – | – | > 71 | < 50
11 | Cc1ncsc1-c1ccc([C@H](C)NC(=O)[C@@H]2C[C@@H](O)CN2C(=O)[C@@H](NC(=O)COCCCCNc2ccc(-c3ccc(N4C(=S)N(c5ccc(C#N)c(C(F)(F)F)c5)C(=O)C4(C)C)cc3)cc2)C(C)(C)C)cc1 [Example 145, (2S,4R)-1-[(2S)-2-[2-(4-{[4-(4-{3-[4-cyano-3-(trifluoromethyl)phenyl]-5,5-dimethyl-4-oxo-2-sulfanylideneimidazolidin-1-yl}phenyl)phen-yl]amino}butoxy)acetamido]-3,3-dimethylbutanoyl]-4-hydroxy-N-[(1S)-1-[4-(4-methyl-1,3-thiazol-5-yl)phenyl]ethyl]pyrrolidine-2-carboxamide] | – | – | > 71 | < 50
12 | Cc1ncsc1-c1ccc(CNC(=O)[C@@H]2C[C@@H](O)CN2C(=O)[C@@H](NC(=O)COCCCCOc2ccc(-c3ccc(N4C(=S)N(c5ccc(C#N)c(C(F)(F)F)c5)C(=O)C4(C)C)cc3)c(F)c2)C(C)(C)C)cc1 [Example 149, (2S,4R)-1-[(2S)-2-(2-{4-[4-(4-{3-[4-cyano-3-(trifluoromethyl)phenyl]-5,5-dimethyl-4-oxo-2-sulfanylideneimidazolidin-1-yl}phenyl)-3-fluorophenoxy]butoxy}acetamido)-3,3-dimethylbutanoyl]-4-hydroxy-N-{[4-(4-methyl-1,3-thiazol-5-yl)phenyl]methyl}pyrrolidine-2-carboxamide] | – | – | > 71 | < 50
